ChEMBL document CHEMBL1201862, “PubChem BioAssay data set” (2004)
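Step 1: Grow cells in 96-well plates. Step 2: Expose to compound for 48 hours at 5 concentrations. Step 3: Interpolate endpoints linearly; if unreached, use highest concentration. At the GI50, growth is halved.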 Calls of active or inactive are those of the source. No stated cut-off is given here; in the data, active = GI50 up to about 1.1 µM and inactive = higher.

Legend:
Assay in all cases: DTP human tumour cell line panel, 48 h
BT-549 = tested on: BT-549
CAKI-1 = tested on: CAKI-1
COLO 205 = tested on: COLO 205
HL-60 = tested on: HL-60
IGROV-1 = tested on: IGROV-1
MCF7 = tested on: MCF7
MDA-MB-435 = tested on: MDA-MB-435
NCI-H460 = tested on: NCI-H460
OVCAR-5 = tested on: OVCAR-5
PC-3 = tested on: PC-3
RPMI-8226 = tested on: RPMI-8226
SK-OV-3 = tested on: SK-OV-3
SN12C = tested on: SN12C
SNB-19 = tested on: SNB-19
SR = tested on: SR
UACC-257 = tested on: UACC-257
Hs-578T = tested on: Hs-578T
M14 = tested on: M14
SNB-75 = tested on: SNB-75
T47D = tested on: T47D

Row | SMILES | GI50 (BT-549) | GI50 (CAKI-1) | GI50 (COLO 205) | GI50 (HL-60) | GI50 (IGROV-1) | GI50 (MCF7) | GI50 (MDA-MB-435) | GI50 (NCI-H460) | GI50 (OVCAR-5) | GI50 (PC-3) | GI50 (RPMI-8226) | GI50 (SK-OV-3) | GI50 (SN12C) | GI50 (SNB-19) | GI50 (SR) | GI50 (UACC-257) | GI50 (Hs-578T) | GI50 (M14) | GI50 (SNB-75) | GI50 (T47D)
1 | Nc1nc(N)c2c(-c3ccccc3)ccnc2n1 | > 100 µM (inactive) | > 100 µM (inactive) | > 100 µM (inactive) | > 100 µM (inactive) | > 100 µM (inactive) | > 100 µM (inactive) | > 100 µM (inactive) | > 100 µM (inactive) | > 100 µM (inactive) | > 100 µM (inactive) | > 100 µM (inactive) | > 100 µM (inactive) | > 100 µM (inactive) | > 100 µM (inactive) | > 100 µM (inactive) | > 100 µM (inactive) | – | – | – | –
2 | c1ccc([P+](Cc2ccc(C[P+](c3ccccc3)(c3ccccc3)c3ccccc3)cc2)(c2ccccc2)c2ccccc2)cc1 | – | > 100 µM (inactive) | 31.2 µM (inactive) | 55.1 µM (inactive) | 20.4 µM (inactive) | 51.4 µM (inactive) | 42.7 µM (inactive) | 12.4 µM (inactive) | 88.5 µM (inactive) | 40.9 µM (inactive) | 43 µM (inactive) | > 100 µM (inactive) | 67.5 µM (inactive) | 26.4 µM (inactive) | > 100 µM (inactive) | 37.1 µM (inactive) | 32.4 µM (inactive) | 58.2 µM (inactive) | 29.6 µM (inactive) | > 100 µM (inactive)
3 | CCC(CO)COC(=O)/C=C/C(=O)OCC(CC)CO (centres undefined) | – | > 100 µM (inactive) | > 100 µM (inactive) | 22.1 µM (inactive) | > 100 µM (inactive) | – | – | > 100 µM (inactive) | > 100 µM (inactive) | – | 33.3 µM (inactive) | > 100 µM (inactive) | > 100 µM (inactive) | > 100 µM (inactive) | 30.9 µM (inactive) | > 100 µM (inactive) | – | > 71.8 µM (inactive) | 73.5 µM (inactive) | –
4 | Cc1sc2nc3n(c(=O)c2c1C)N=CN(c1ccccc1)C3 | > 100 µM (inactive) | 36 µM (inactive) | > 100 µM (inactive) | – | > 100 µM (inactive) | > 100 µM (inactive) | > 100 µM (inactive) | > 100 µM (inactive) | > 100 µM (inactive) | > 100 µM (inactive) | > 100 µM (inactive) | > 100 µM (inactive) | > 100 µM (inactive) | 35.5 µM (inactive) | > 100 µM (inactive) | > 100 µM (inactive) | – | > 100 µM (inactive) | 35.9 µM (inactive) | 79.8 µM (inactive)
5 | C=CCN1CC2CN=NC2(C#N)C1 (centres undefined) | > 100 µM (inactive) | > 100 µM (inactive) | > 100 µM (inactive) | > 100 µM (inactive) | > 100 µM (inactive) | > 100 µM (inactive) | > 100 µM (inactive) | > 100 µM (inactive) | > 100 µM (inactive) | > 100 µM (inactive) | – | – | > 100 µM (inactive) | > 100 µM (inactive) | > 100 µM (inactive) | > 100 µM (inactive) | – | – | > 100 µM (inactive) | > 100 µM (inactive)
6 | COc1c(OC2OC(CO)C(O)C(O)C2O)cc2c(c1OC)-c1ccc(OC)c(=O)cc1C(NC(C)=O)CC2 (centres undefined) | – | > 100 µM (inactive) | > 28.3 µM (inactive) | > 100 µM (inactive) | > 84.1 µM (inactive) | – | – | > 100 µM (inactive) | > 100 µM (inactive) | – | > 100 µM (inactive) | > 100 µM (inactive) | > 100 µM (inactive) | > 100 µM (inactive) | > 100 µM (inactive) | > 100 µM (inactive) | – | > 100 µM (inactive) | 25.3 µM (inactive) | –
7 | Cc1c(C(=O)C/C(=N/NC(=O)C[n+]2ccccc2)C(=O)Nc2ccccc2)[n+]([O-])c2ccccc2[n+]1[O-] | – | > 100 µM (inactive) | > 100 µM (inactive) | > 100 µM (inactive) | > 100 µM (inactive) | – | – | > 100 µM (inactive) | > 100 µM (inactive) | – | > 100 µM (inactive) | > 100 µM (inactive) | > 100 µM (inactive) | > 100 µM (inactive) | 87.5 µM (inactive) | > 100 µM (inactive) | – | > 100 µM (inactive) | > 100 µM (inactive) | –
8 | C=CCCCC(C#N)(c1ccccc1)N1CCCC1 (centres undefined) | – | > 100 µM (inactive) | > 100 µM (inactive) | > 100 µM (inactive) | > 100 µM (inactive) | – | – | > 100 µM (inactive) | > 100 µM (inactive) | – | > 100 µM (inactive) | > 100 µM (inactive) | > 100 µM (inactive) | > 100 µM (inactive) | > 100 µM (inactive) | > 100 µM (inactive) | – | > 100 µM (inactive) | > 100 µM (inactive) | –
9 | CN1CCN(CCn2c3c4ccccc4ccc3c3oc(=O)c4ccccc4c32)CC1 | – | 4.97 µM (inactive) | 1.8 µM (inactive) | 2.15 µM (inactive) | 13.2 µM (inactive) | 1.55 µM (inactive) | 1.88 µM (inactive) | 1.99 µM (inactive) | 5.74 µM (inactive) | 2.03 µM (inactive) | 2.61 µM (inactive) | 12.7 µM (inactive) | 1.51 µM (inactive) | 4.51 µM (inactive) | 1.5 µM (inactive) | 1.56 µM (inactive) | 4.79 µM (inactive) | 1.68 µM (inactive) | 4.37 µM (inactive) | > 10 µM (inactive)
10 | CCn1c2ccccc2c2cc(Nc3cc(C)[nH]c(=O)n3)ccc21 | – | > 100 µM (inactive) | > 100 µM (inactive) | 0.255 µM (active) | – | > 100 µM (inactive) | 0.33 µM (active) | > 100 µM (inactive) | > 100 µM (inactive) | > 100 µM (inactive) | – | > 100 µM (inactive) | > 100 µM (inactive) | > 100 µM (inactive) | 0.0199 µM (active) | > 100 µM (inactive) | – | > 100 µM (inactive) | – | > 100 µM (inactive)
11 | Cc1cccc(C)c1NC(=O)CCCC(=O)C(C#N)c1ccc(Cl)cc1 (centres undefined) | – | > 100 µM (inactive) | > 100 µM (inactive) | > 100 µM (inactive) | > 100 µM (inactive) | – | – | > 100 µM (inactive) | > 100 µM (inactive) | – | > 100 µM (inactive) | > 100 µM (inactive) | > 100 µM (inactive) | > 100 µM (inactive) | > 100 µM (inactive) | > 100 µM (inactive) | – | > 100 µM (inactive) | 35.6 µM (inactive) | –
12 | Cc1ccc(S(=O)(=O)[C@@H](Cl)[C@H]2N=C(Cl)NN=C2c2ccccc2)cc1 | 23.9 µM (inactive) | 41.9 µM (inactive) | 26.9 µM (inactive) | – | 21.8 µM (inactive) | 26.9 µM (inactive) | 22.1 µM (inactive) | 37.1 µM (inactive) | 85.9 µM (inactive) | 16.7 µM (inactive) | 27.6 µM (inactive) | 32.6 µM (inactive) | 21.7 µM (inactive) | 37.8 µM (inactive) | 27.2 µM (inactive) | 20.6 µM (inactive) | – | 21.2 µM (inactive) | 27.9 µM (inactive) | 28.8 µM (inactive)
13 | COc1c(OC)c(N)c2cc(C)c(=O)c(C)cc2c1N | – | > 100 µM (inactive) | 35.4 µM (inactive) | > 100 µM (inactive) | > 100 µM (inactive) | – | – | > 100 µM (inactive) | > 100 µM (inactive) | – | > 100 µM (inactive) | > 100 µM (inactive) | > 100 µM (inactive) | > 100 µM (inactive) | 12.4 µM (inactive) | > 100 µM (inactive) | – | > 100 µM (inactive) | 56.4 µM (inactive) | –
14 | CC(=O)O[C@@H]1CC[C@@]2(C)C(=O)C34C[C@@]5(C)C([C@@H](C)CCCC(C)C)CCC5(C)[C@](O)(O3)C(=O)[C@H]4C2C1(C)C (some centres undefined) | – | 14.7 µM (inactive) | 14.5 µM (inactive) | 10.2 µM (inactive) | 15.4 µM (inactive) | – | – | 6.04 µM (inactive) | 15.9 µM (inactive) | – | 13.4 µM (inactive) | 18.3 µM (inactive) | 13.2 µM (inactive) | 16.6 µM (inactive) | 16 µM (inactive) | 17 µM (inactive) | – | 13.1 µM (inactive) | 15.7 µM (inactive) | –
15 | Cc1nc(N)nc(S)c1CCC(=O)O | > 100 µM (inactive) | > 100 µM (inactive) | > 100 µM (inactive) | > 100 µM (inactive) | > 100 µM (inactive) | > 100 µM (inactive) | > 100 µM (inactive) | > 100 µM (inactive) | > 100 µM (inactive) | > 100 µM (inactive) | > 100 µM (inactive) | > 100 µM (inactive) | > 100 µM (inactive) | > 100 µM (inactive) | > 100 µM (inactive) | > 100 µM (inactive) | > 100 µM (inactive) | > 100 µM (inactive) | – | –
16 | N#CC(C#N)=C1NC(=O)CC(=O)N1 | – | > 100 µM (inactive) | > 100 µM (inactive) | > 100 µM (inactive) | > 100 µM (inactive) | – | – | > 100 µM (inactive) | > 100 µM (inactive) | – | > 100 µM (inactive) | > 100 µM (inactive) | > 100 µM (inactive) | > 100 µM (inactive) | > 100 µM (inactive) | > 100 µM (inactive) | – | > 100 µM (inactive) | > 100 µM (inactive) | –
17 | S=C(S)NCNC(=S)S | – | > 100 µM (inactive) | > 100 µM (inactive) | > 100 µM (inactive) | > 100 µM (inactive) | > 100 µM (inactive) | > 100 µM (inactive) | > 100 µM (inactive) | > 100 µM (inactive) | > 100 µM (inactive) | > 100 µM (inactive) | > 100 µM (inactive) | > 100 µM (inactive) | > 100 µM (inactive) | – | > 100 µM (inactive) | > 100 µM (inactive) | > 100 µM (inactive) | > 100 µM (inactive) | > 100 µM (inactive)
